This assay relates to THP1 cells. Description: CD206 and CD86 expression by western blot. Type of assay: cell-based, human. The settings on record: Aspirin 200 μM with UBM hydrogel. The procedure:
THP-1 human monocytes were obtained from the American Tissue Culture Collection (ATCC, Manassas, VA) and maintained in RPMI, 10% FBS, 1% penicillin/streptomycin, 2 mM L-glutamine, and 1 mM sodium pyruvate in a humidified atmosphere at 37° C. with 5% CO2. For experiments, 500,000 THP-1 cells/mL were plated with 320 nM phorbol 12-myristate 13-acetate (PMA) for 24 hours to induce differentiation into macrophages. Adherent macrophages were washed in PBS and placed in fresh media, followed by a 24 hour incubation to acquiesce.
THP1 macrophage-like cells prepared as described in the cell culture section had 200 μM Aspirin added (where appropriate) 1 hour prior to UBM hydrogel (0.5 mg/mL) treatment. Cells were then treated with UBM hydrogel for 4, 8, or 24 hours. At the specified time points, cells were washed extensively with 1× PBS and lysis buffer (50 mM Tris, 20 mM NaCl, 1% Triton X-100) was added. Cells were mechanically removed from the culture dish, transferred to centrifuge tubes and incubated on ice for 10 minutes. Lysates were spun down at 14000 rpm for 20 minutes at 4° C. to remove any debris. The clarified lysate was stored at −80° C. Lysates were diluted 1:1 in 2× Laemmli Sample Buffer (Bio-Rad, Hercules, CA) and boiled at 95° C. for 5 minutes. Samples were then resolved on 9% SDS-PAGE gels (National Diagnostics) and transferred to polyvinyldifluoride (PVDF, Millipore) membranes. Membranes were blocked with 1:1 Odyssey Blocking Buffer:1×PBS (Licor) overnight at 4° C. Blocked membranes were immunoblotted with either rabbit anti-human COX2 (1:5,000, Abcam), goat anti-human CD206 (1:3,000, Santa-Cruz), rabbit anti-human CD86 (1:5,000, Abcam), or mouse anti-human β-Actin (1:5,000, Abcam) in blocking buffer for 1 hour at room temperature with agitation. Membranes were extensively washed with TBST before the appropriate secondary antibodies (1:10,000, donkey anti-goat IR Dye 680, donkey-anti rabbit IR Dye 680, and donkey anti-mouse IR Dye 800, Licor) in imaging buffer (1:1 Odyssey Blocking Buffer, 0.02% SDS in TBST) were added for 30 minutes with agitation. […]
Background: Immunoblotting shows a protein as a band on a membrane.

Consider `CC(=O)Oc1ccccc1C(=O)O` [Aspirin], for which, for the setting “at 24 hours”, the “maximum increase in CD86 expression” value worked out at 0.15 fold and the “reduction in CD206 expression” value worked out at 91%. Further, for the setting “early time points”, the CD206 expression result was “did not alter CD206 expression”.

These data come from patent US20250065017A1, “Fractionating Extracellular Matrix to Modulate Bioactivity and the Host Response” (University of Pittsburgh - Of the Commonwealth System of …, priority 2014, published 2025).
